Experimental data reported in publication PMC7417721, “Cell cycle exit during bortezomib‐induced osteogenic differentiation of mesenchymal stem cells was mediated by Xbp1s‐upregulated p21^Cip1 and p27^Kip1” (Journal of Cellular and Molecular Medicine, 2020).
Like-named read-outs stand apart in the source and are kept apart here.

Legend:
[1] = test system: Grp78, Chop, Xbp1s, Atf4 in mBM-MSCs; experiment: Western blotting of ER stress signalling proteins; format: cell-based, mouse; settings: 24 h
Experimental: (§1) Western blotting was performed as described previously. ^16 Briefly, mBM‐MSCs were cultured with indicated doses of bortezomib for 24 h; then, the cells were lysed in radioimmunoprecipitation assay (RIPA) buffer. Equal amount of proteins was loaded on 10% sodium dodecyl sulphate‐polyacrylamide gel electrophoresis (SDS‐PAGE) gel and was then electrotransferred to polyvinylidene difluoride (PVDF) membrane immunoblotted for specific primary antibodies. Immunoblots were visualized using horseradish peroxidase (HRP)‐conjugated secondary antibodies (Jackson ImmunoResearch Laboratories, West Grove, PA, USA) and the enhanced chemiluminescence (ECL) Western Blot Detection Kit (Phygene Life Sciences, Fuzhou, Fujian, China). The chemiluminescent blots were captured by using digital imaging with a charge‐coupled device (CCD) camera system MiniChemi 610 and analysed by Lane 1D™ analysis software (Sage, Beijing, China).

[2] = test system: cyclin D3, cyclin E1, Cdk2, Cdk4, p21Cip1, p27Kip1 in mBM-MSCs; experiment: Western blotting of cell cycle regulatory components (cyclins, CDKs, CKIs); format: cell-based, mouse; settings: 24 h
Experimental: as §1

mBM-MSCs [3] = experiment: Cell cycle analysis (propidium iodide, flow cytometry); format: cell-based, mouse; settings: 24 h; for proportion of S phase cells: mean ± SEM of three experiments (control 32.017 ± 1.991); for percentage of cells in G0/G1 phase: mean ± SEM of three experiments (control 55.14 ± 5.132)
Experimental: mBM‐MSCs (5 × 10^5 cells) treated with various concentrations of bortezomib for 24 h were harvested, washed with PBS solution, fixed in 70% ethanol and kept at −20°C overnight. Cells were then resuspended in a buffer containing […] propidium iodide and […] RNase A (Solarbio Life Sciences, Beijing, China). Samples were analysed using a BD FACSCanto II flow cytometer. Data were acquired and analysed using CellQuest and ModFit software (BD Biosciences, San Jose, CA, USA).

[4] = test system: p21Cip1 and p27Kip1 mRNA in mBM-MSCs; experiment: Real-time PCR of p21Cip1 and p27Kip1 mRNA; format: cell-based, mouse; settings: 24 h
Experimental: Total RNA from cells was extracted using Ultrapure RNA Kit (DNase I) (CWBIO, Beijing, China) according to the manufacturer's instructions. Reverse transcription was performed using HiFiScript cDNA Synthesis Kit (CWBIO, Beijing, China). Real‐time PCR was performed using UltraSYBR Mixture (CWBIO, Beijing, China) and a CFX96™ Real‐Time PCR Detection System (Bio‐Rad, Hercules, CA, USA). The thermal cycling conditions included 2 min at 50°C and 10 min at 95°C, followed by 40 cycles of 95°C for 15 s, 58°C for 30 s and 72°C for 30 s. Mouse β‐actin was used as internal control. The relative expression levels of each gene were analysed using the 2^‐ΔΔCt method. The primers were designed using Primer3Plus platform (http://www.bioinformatics.nl/primer3plus) and synthesized by Sangon Biotech (Shanghai, China).

mBM-MSCs [5] = experiment: MTT cell viability assay; settings: for IC50: Mus musculus, read-out: IC50, cell viability
Experimental: mBM‐MSCs were seeded at a cell density of 5 × 10^3 cells/mL in 96‐well plates and allowed to attach to the wells for 24 h. Cells were then treated with various concentrations of bortezomib. After 24‐h and 48‐h treatment, 10 µL of 3‐(4,5‐dimethylthiazol‐2‐yl)‐2,5‐diphenyltetrazolium bromide (MTT) solution (Sigma‐Aldrich, Burlington, MA, USA) was added to each well to a final concentration of 0.5 mg/mL. The supernatant medium was then discarded, and a volume of 150 µL of DMSO was added to each well to lyse the crystal. The plates were agitated for 15 min to ensure the dissolution of any remaining crystals. The absorbance in the relevant wells was measured at 490 nm using an Ultra Microplate Reader (ELx800, BioTek Instruments, Winooski, VT, USA). Each experiment was reproduced three times in duplicate.

mBM-MSCs [6] = experiment: Alizarin Red S staining of mineralized matrix (osteogenic differentiation); format: cell-based, mouse; settings: 8 days
Experimental: mBM‐MSCs were plated in 35‐mm‐diameter culture dishes and grown in DMEM containing 10% FBS, 100 U/mL penicillin, 100 μg/mL streptomycin, and 2 mM L‐glutamine at 37°C in a humidified incubator with 5% CO2 in the air. When cell density reached 70%‐80% confluence, the cells were subsequently cultured in the presence or absence of bortezomib at the indicated concentrations for 8 days. The culture medium was changed every 3 days. mBM‐MSCs cultured in an osteogenic induction media containing […] ascorbic acid and 10 mM β‐glycerophosphate sodium were used as a positive control. For Alizarin Red S (ARS) (Solarbio Life Sciences, Beijing, China) staining, mBM‐MSCs were fixed with 4% formaldehyde for 10 min, then rinsed twice with phosphatebuffered saline (PBS) at room temperature. The cells were then stained with 1% ARS (pH 4.2) for up to 15 min at room temperature. Images of mBM‐MSCs stained with ARS were captured and stored digitally.

[7] = test system: Runx2, Sp7, Col1A1, ALP, OCN/BGLAP in mBM-MSCs; experiment: Western blotting of osteogenesis-related proteins; format: cell-based, mouse; settings: indicated concentrations, 24 h, Figure S1
Experimental: as §1

mBM-MSCs [8] = experiment: EdU cell proliferation assay (flow cytometry); format: cell-based, mouse; settings: various concentrations, 24 h
Experimental: 5‐ethynyl‐2′‐deoxyuridine (EdU) incorporation assay was performed to measure cell proliferation with the kit (Molecular Probes, Eugene, OR, USA) according to the manufacturer's instructions. Briefly, mBM‐MSCs were seeded and grown at a density of 70%‐80% confluence in 35‐mm culture dishes and then treated with various concentrations of bortezomib for 24 h. EdU was added to the culture media 4 h before the harvest. The cells were detected by flow cytometry using a BD FACSCanto II instrument. Data were analysed using FlowJo 7.6.2 software (Tree Star, Ashland, OR, USA).

[9] = MKC3946 10 nM with bortezomib 2.5 nM

In the case of `Cn1cc(-c2ccc3c(c2)CCN3C(=O)Cc2cccc(C(F)(F)F)c2)c2c(N)ncnc21` [GSK2606414], the “Atf4 (protein)” value ([1]; in the presence of bortezomib) is reported as “marked decrease”, the “expression of p21Cip1 (protein)” value ([2]; in the presence of bortezomib) is reported as “no significant effects” and the “expression of p27Kip1 (protein)” value ([2]; in the presence of bortezomib) is reported as “no significant effects”.
For `CN1CCN(C(=O)c2ccc(-c3ccc4c(C=O)c(O)ccc4c3)s2)CC1` [MKC3946], the “bortezomib-induced Xbp1s (protein)” value ([1]; in the presence of bortezomib) was “aborted”, the cell cycle distribution (mBM-MSCs [3]; 10 nM MKC3946 alone, Figure S2) was “no effects” and the “percentage of S phase” value (mBM-MSCs [3]; combination of 10 nM MKC3946 with 2.5 nM bortezomib, Figure S2) was “significantly decreased”. The “mRNA level of p21Cip1” value [4, 9] was “aborted up‐regulation”, the “mRNA level of p27Kip1” value [4, 9] was “aborted up‐regulation” and the “expression of p21Cip1 (protein)” value ([2]; in the presence of bortezomib) was “decrease”. The “expression of p27Kip1 (protein)” value ([2]; in the presence of bortezomib) was “decrease”.
`CC(C)C[C@H](NC(=O)[C@H](Cc1ccccc1)NC(=O)c1cnccn1)B(O)O` [bortezomib, Bortezomib] was tested, and the IC50 (mBM-MSCs [5]; 24 h) was 8.89 nM, the IC50 (mBM-MSCs [5]; 48 h) was 6.64 nM and the “doses resulting in cytotoxicity to mBM-MSCs” value (mBM-MSCs [5]; mBM-MSCs, MTT, 24 h and 48 h) was “higher than 5 nM”. For the same compound, the “expression of Atf4” value ([1]; indicated concentrations) was “activated”, the “expression of ER stress marker Chop” value ([1]; indicated concentrations) was “increased expression levels” and the “expression of ER stress marker Grp78” value ([1]; indicated concentrations) was “increased expression levels”. The “expression of Xbp1s” value ([1]; indicated concentrations) was “activated”, the “proportion of cells in the G2/M phase” value (mBM-MSCs [3]; 2.5 nM and 5 nM) was “no significant change” and the “proportion of S phase cells” value (mBM-MSCs [3]; 2.5 nM) was 21.807 ± 2.844%. For the same compound, the “percentage of cells in G0/G1 phase” value (mBM-MSCs [3]; 2.5 nM) was 67.36 ± 6.067%, the “proportion of S phase cells” value (mBM-MSCs [3]; 5 nM) was 19.940 ± 4.321% and the “percentage of cells in G0/G1 phase” value (mBM-MSCs [3]; 5 nM) was 68.117 ± 2.743%. For the same compound, the “calcium deposition (ARS staining) versus control cells” value (mBM-MSCs [6]; 2.5 nM) was “much higher amounts of calcium phosphate crystals than the control cells”, the “calcium deposition (ARS staining) versus control cells” value (mBM-MSCs [6]; 5 nM) was “much higher amounts of calcium phosphate crystals than the control cells” and the “mRNA level of p21Cip1” value ([4]; 2.5 nM) was “significantly up‐regulated”. The “mRNA level of p27Kip1” value ([4]; 2.5 nM) was “significantly up‐regulated”, the “expression of Cdk2 (protein)” value ([2]; indicated concentrations) was “markedly decreased” and the “expression of Cdk4 (protein)” value ([2]; indicated concentrations) was “markedly decreased”. The “expression of cyclin D3 (protein)” value ([2]; indicated concentrations) was “no effects”, the “expression of cyclin E1 (protein)” value ([2]; indicated concentrations) was “no effects” and the “expression of p21Cip1 (protein)” value ([2]; indicated concentrations) was “significantly increased”. For the same compound, the “expression of p27Kip1 (protein)” value ([2]; indicated concentrations) was “significantly increased”, the “expression of Col1A1” value [7] was “induce the expression” and the “expression of Runx2” value [7] was “induce the expression”. For the same compound, the “expression of Sp7” value [7] was “induce the expression”, the “expression of alkaline phosphatase (ALP)” value [7] was “induce the expression” and the “expression of osteocalcin (OCN/BGLAP)” value [7] was “induce the expression”. The “numbers of EdU-positive mBM-MSCs” value (mBM-MSCs [8]) was “dose‐dependently decreased”.
